Consider 19 compounds from patent publication US9605005B2, “Alkynyl alcohols and methods of use” (Genentech, Inc., priority 2013, dated 2017).

For orientation: Ki means the equilibrium dissociation constant of an inhibitor or competing ligand from its target. By IC50 is commonly meant the point on the concentration scale where inhibition reaches its midpoint.

Like-named read-outs stand apart in the source and are kept apart here.

Assay [1] concerns the target nuclear factor-kappa B (NF-kB)-inducing kinase (NIK) (Homo sapiens (Human), UniProt Q99558). Briefly: NIK enzyme inhibition assay (Transcreener ADP, NIK ADP-FP). Format: biochemical. The note with it: purified NIK 0.5 nM, 10 μM ATP, fluorescence polarization; read-out: NIK ADP-FP (Ki μM). For orientation: Fluorescence polarisation rises when a labelled molecule tumbles more slowly, as on binding a larger partner.

In assay [2] the test system is REL-A (p65) nuclear translocation, HeLa cells. Briefly: REL-A (p65) nuclear translocation assay in HeLa cells (classical NF-kB signaling, TNF-α stimulated). It is filed as cell-based. The following applies: Homo sapiens, 0.5 h. As for the experimental part:
(§1) Several assays were developed to profile the cellular activities of NIK inhibitors.
(§2) (2) A second set of cell assay are used to define the selectivity of NIK inhibitors toward inhibition of classical vs. non-classical NF-kB signaling and rely on quantification of the nuclear translocation of p52 (NF-kB2) and REL-A (p65) using high content cellular imaging. For the p52 (non-classical NF-kB signaling) nuclear translocation assay, HeLa cells are treated with different concentrations of compounds (0.2% DMSO final) in medium containing 10% fetal bovine serum and then stimulated with 100 ng/mL of an anti-lymphotoxin beta receptor antibody (R&D Systems) for 5 hours. In the REL-A nuclear translocation assay, HeLa cells are incubated with compounds (0.2% DMSO final) for 4.5 hours in medium containing 10% fetal bovine serum before stimulating them with 10 ng/mL tumor necrosis factor (TNF)-α (R&D Systems) for 30 minutes. Cells are fixed with 4% paraformaldehyde, permeabilized by adding 0.1% Triton X-100 in phosphate buffered saline, and then are incubated with either 2 ug/mL anti-p52 antibody (Millipore) or 400 ng/mL anti-REL-A (p65) antibody (Santa Cruz Biotechnology). Finally, the cells are incubated with an Alexa488-labeled secondary antibody (Invitrogen) and DRAQ5 DNA stain (Biostatus). Imaging is carried out using an Opera reader (Perkin Elmer) and data are analyzed with the aid of Acapella software (Perkin Elmer). The p52 or REL-Atranslocation into the nucleus is quantified by the ratio of the nuclear to cytoplasmic signal intensity. […] The compounds in listed in Table 1 have the corresponding inhibitory value (IC50 in micromolar) for NIK p52 Translocation Assay as set forth in Table 2.
(§3) The compounds in listed in Table 1 have the corresponding inhibitory values (IC50 in micromolar) for the Translocation Assays as set forth in Table 2.

Assay [3] has as its system p52 (NF-kB2) nuclear translocation, HeLa cells. The experiment in a line: p52 (NF-kB2) nuclear translocation assay in HeLa cells (non-classical NF-kB signaling, anti-lymphotoxin beta receptor antibody stimulated). It is filed as cell-based. The note with it: Homo sapiens, 100 ng/mL anti-lymphotoxin beta receptor antibody for 5 hours, read-out: p52 HeLa Transloc Assay (IC50). On the procedure: as §1, §2, §3

Setting [4] is: HeLa cells, 10 ng/mL TNF-α for 30 minutes, read-out: REL-A HeLa Transloc Assay (IC50).

nuclear factor-kappa B (NF-kB)-inducing kinase (NIK), sequence (Q99558 whole entry): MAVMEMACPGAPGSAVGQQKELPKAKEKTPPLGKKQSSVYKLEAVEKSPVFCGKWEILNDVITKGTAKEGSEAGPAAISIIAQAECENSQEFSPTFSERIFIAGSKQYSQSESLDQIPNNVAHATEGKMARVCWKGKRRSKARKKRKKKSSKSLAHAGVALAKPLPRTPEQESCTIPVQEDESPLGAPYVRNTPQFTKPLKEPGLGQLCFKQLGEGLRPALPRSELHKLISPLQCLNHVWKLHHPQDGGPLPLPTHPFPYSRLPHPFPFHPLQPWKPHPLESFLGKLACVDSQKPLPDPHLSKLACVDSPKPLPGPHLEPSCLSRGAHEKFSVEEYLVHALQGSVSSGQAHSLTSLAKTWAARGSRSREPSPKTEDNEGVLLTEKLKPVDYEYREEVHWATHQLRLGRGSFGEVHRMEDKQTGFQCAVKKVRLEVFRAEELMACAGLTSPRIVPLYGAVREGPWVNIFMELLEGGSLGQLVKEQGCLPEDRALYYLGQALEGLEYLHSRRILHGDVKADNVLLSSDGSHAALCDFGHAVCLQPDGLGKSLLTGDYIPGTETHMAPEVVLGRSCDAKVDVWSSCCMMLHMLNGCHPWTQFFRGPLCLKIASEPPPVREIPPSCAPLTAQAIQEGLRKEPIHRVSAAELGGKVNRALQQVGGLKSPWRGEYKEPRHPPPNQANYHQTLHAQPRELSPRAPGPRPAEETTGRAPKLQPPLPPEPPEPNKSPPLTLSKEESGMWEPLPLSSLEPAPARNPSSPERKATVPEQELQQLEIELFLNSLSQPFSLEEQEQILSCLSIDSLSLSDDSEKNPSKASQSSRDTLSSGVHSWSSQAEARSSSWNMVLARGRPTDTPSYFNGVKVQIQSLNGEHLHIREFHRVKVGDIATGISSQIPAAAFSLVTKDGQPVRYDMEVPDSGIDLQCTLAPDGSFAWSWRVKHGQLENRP

For `CC(O)(C#Cc1cccc(-n2nc(C(N)=O)c3ccccc32)c1)c1nccs1` (single isomer, unassigned) [Compound 170], the Ki in assay [1] amounted to 0.75 nM. The IC50 in assay [2] (HeLa, read-out: REL-A HeLa Transloc Assay (IC50) [μM]) was found to be 17.1 µM; in assay [3], 244 nM.
On to `CN1CC[C@@](O)(C#Cc2cccc(-n3nc(C(N)=O)c4c3CCC[C@H]4O)c2)C1=O` [Compound 2, (4R)-4-hydroxy-1-[3-[2-[(3R)-3-hydroxy-1-methyl-2-oxo-pyrrolidin-3-yl]ethynyl]phenyl]-4,5,6,7-tetrahydroinda-zole-3-carboxamide], for which the Ki in assay [1] was found to be 1.07 nM. In addition, the IC50 stood at 20 µM in assay [2] (setting [4]) and 273 nM in assay [3].
For `CN1CC[C@@](O)(C#Cc2cccc(-n3nc(C(N)=O)c4c3CCC[C@@H]4O)c2)C1=O` [Compound 3, (4S)-4-hydroxy-1-[3-[2-[(3R)-3-hydroxy-1-methyl-2-oxo-pyrrolidine-3-yl]ethynyl]phenyl]-4,5,6,7-tetrahydroinda-zole-3-carboxamide], the Ki in assay [1] is 1.13 nM. Besides, the IC50 in assay [2] (setting [4]) came out at 20 µM; in assay [3], 544 nM.
Taken in the same sequence, the figures for `CN1CC[C@@](O)(C#Cc2ccnc(-n3nc(C(N)=O)c4c3C[C@@]3(C)C[C@H]3C4)c2)C1=O` [Compound 6, (4aS,5aR)-1-[4-[2-[(3R)-3-hydroxy-1-methyl-2-oxo-pyrroli-din-3-yl]ethynyl]-2-pyri-dyl]-5a-methyl-4,4a,5,6-tetrahydrocyclopropa[f]inda-zole-3-carboxamide] were 7.78 nM, 10 µM and 901 nM.
With `CN1CC[C@@](O)(C#Cc2ccnc(-n3nc(C(N)=O)c4c(F)cccc43)c2)C1=O` [Compound 10, 4-fluoro-1-[4-[2-[(3R)-3-hy-droxy-1-methyl-2-oxo-pyrroli-din-3-yl]ethynyl]-2-pyri-dyl]indazole-3-carboxamide], the Ki in assay [1] is 1.19 nM. In addition, the IC50 in assay [2] (setting [4]) was determined as 20 µM; in assay [3], 66.3 nM.
As for `CN1CC[C@@](O)(C#Cc2cccc(-n3nc(C(N)=O)c4c3OCCC4)c2)C1=O` [Compound 12, 1-[3-[2-[(3R)-3-hydroxy-1-methyl-2-oxo-pyrrolidin-3-yl]ethynyl]phenyl]-5,6-dihydro-4H-pyrano[2,3-c]pyrazole-3-carboxamide], in assay [1], the Ki was 1.56 nM. The concentration for half-maximal inhibition (IC50) was 20 µM in assay [2] (setting [4]) and 187 nM in assay [3].
For `COc1ccc2c(c1)c(C(N)=O)nn2-c1cccc(C#C[C@]2(O)CCN(C)C2=O)c1` [Compound 14, 1-[3-[2-[(3R)-3-hydroxy-1-methyl-2-oxo-pyrrolidin-3-yl]ethynyl]phenyl]-5-methoxy-indazole-3-carboxamide], the Ki in assay [1] was found to be 0.05 nM. For the same compound, the figures for the IC50 in assay [2] (setting [4]) and in assay [3] were 20 µM and 67.8 nM, respectively.
Taken in the same sequence, the figures for `CN1CC[C@@](O)(C#Cc2cccc(-n3nc(C(N)=O)c4c3CCN(C(=O)OC(C)(C)C)C4)c2)C1=O` [Compound 16, tert-butyl 3-carbamoyl-1-[3-[2-[(3R)-3-hydroxy-1-methyl-2-oxo-pyrrolidin-3-yl]ethynyl]phe-nyl]-6,7-dihydro-4H-pyrazolo [4,3-c]pyridine-5-carboxylate] were 0.9 nM, 20 µM and 125 nM.
As to `CN1CC[C@@](O)(C#Cc2cc(F)cc(-n3nc(C(N)=O)c4cccnc43)c2)C1=O` [Compound 18, 1-[3-fluoro-5-[2-[(3R)-3-hy-droxy-1-methyl-2-oxo-pyrroli-din-3-yl]ethynyl]phenyl] pyrazolo[3,4-b]pyridine-3-carboxamide], the Ki in assay [1] came to 0.86 nM. Also, the IC50 came to 20 µM in assay [2] (setting [4]) and 138 nM in assay [3].
The like results for `COc1ccc2c(C(N)=O)nn(-c3cccc(C#C[C@]4(O)CCN(C)C4=O)c3)c2c1` [Compound 22, 1-[3-[2-[(3R)-3-hydroxy-1-methyl-2-oxo-pyrrolidin-3-yl]ethynyl]phenyl]-6-methoxy-indazole-3-carboxamide] were, in that order, 0.34 nM, 20 µM and 94.8 nM.
In the case of `Cc1nc2c(s1)c(C(N)=O)nn2-c1cccc(C#C[C@]2(O)CCN(C)C2=O)c1` [Compound 25, 1-[3-[2-[(3R)-3-hydroxy-1-methyl-2-oxo-pyrrolidin-3-yl]ethynyl]phenyl]-5-methyl-pyrazolo[3,4-d]thiazole-3-carboxamide], in assay [1], the Ki worked out at 0.41 nM. Further, the IC50 in assay [2] (setting [4]) was 20 µM; in assay [3] it was 44.6 nM.
Regarding `CN1CC[C@@](O)(C#Cc2ccnc(-n3nc(C(N)=O)c4c3CCCC4)c2)C1=O` [Compound 51, 1-[4-[2-[(3R)-3-hydroxy-1-methyl-2-oxo-pyrrolidin-3-yl]ethynyl]-2-pyridyl]-4,5,6,7-tetrahydroindazole-3-carbox-amide], the IC50 was determined as 7.19 µM in assay [2] (setting [4]) and 225 nM in assay [3].
The like results for `CN1CC[C@@](O)(C#Cc2ccnc(-n3nc(C(N)=O)c4ccccc43)c2)C1=O` [Compound 52, 1-[4-[2-[(3R)-3-hydroxy-1-methyl-2-oxo-pyrrolidin-3-yl]ethynyl]-2-pyridyl]indazole-3-carboxamide] were, in that order, 20 µM and 22.8 nM.
The like results for `CN1CC[C@@](O)(C#Cc2cccc(-n3nc(C(N)=O)c4cccnc43)c2)C1=O` [Compound 53, 1-[3-[2-[(3R)-3-hydroxy-1-methyl-2-oxo-pyrrolidin-3-yl]ethynyl]phenyl]pyrazolo [3,4-b]pyridine-3-carboxamide] were, in that order, 20 µM and 37.9 nM.
The like results for `CN1CC[C@@](O)(C#Cc2ccnc(-n3nc(C(N)=O)c4cc(F)ccc43)c2)C1=O` [Compound 54, 5-fluoro-1-[4-[2-[(3R)-3-hy-droxy-1-methyl-2-oxo-pyrroli-din-3-yl]ethynyl]-2-pyri-diyl]indazole-3-carboxamide] were, in that order, 2 µM and 39 nM.
On to `COc1cnc2c(c1)c(C(N)=O)nn2-c1cccc(C#C[C@]2(O)CCN(C)C2=O)c1` [Compound 74, 1-[3-[2-[(3R)-3-hydroxy-1-methyl-2-oxo-pyrrolidin-3-yl]ethynyl]phenyl]-5-methoxy-pyrazolo[3,4-b]pyridine-3-carboxamide], for which the IC50 was found to be 8 µM in assay [2] (setting [4]) and 13.9 nM in assay [3].
In the case of `CN1CC[C@@](O)(C#Cc2cccc(-c3nc(C(N)=O)n4ccccc34)c2)C1=O` [Compound 77, 1-[3-[2-[(3R)-3-hydroxy-1-methyl-2-oxo-pyrrolidin-3-yl]ethynyl]phenyl]imidazo[1,5-a]pyridine-3-carboxamide], the IC50 in assay [2] (setting [4]) was determined as 20 µM; in assay [3], 29.8 nM.
The like results for `CN1CC[C@@](O)(C#Cc2cccc(-c3nc(C(N)=O)c4ccccn34)c2)C1=O` [Compound 88, 3-[3-[2-[(3R)-3-hydroxy-1-methyl-2-oxo-pyrrolidin-3-yl]ethynyl]phenyl]imidazo[1,5-a]pyridine-1-carboxamide] were, in that order, 20 µM and 240 nM.
Taken in the same sequence, the figures for `COc1ccc2c(-c3cccc(C#C[C@]4(O)CCN(C)C4=O)c3)nc(C(N)=O)n2c1` [Compound 98, 1-[3-[2-[(3R)-3-hydroxy-1-methyl-2-oxo-pyrrolidin-3-yl]ethynyl]phenyl]-6-methoxy-imidazo[1,5-a]pyridine-3-carboxamide] were 6.32 µM and 17 nM.
